Test results reported in US20240165018A1, “HYDROGEL IMPLANTS FOR LOWERING INTRAOCULAR PRESSURE” (OCULAR THERAPEUTIX, INC., priority 2019, published 2024).
Like-named read-outs stand apart in the source and are kept apart here.

What was measured:
[1] = test system: glaucomatous beagles; assay: Pupil diameter changes in glaucomatous beagles after travoprost instillations; format: in vivo
Source text: (§1) A pharmacodynamic study performed in twelve glaucomatous beagles evaluated the changes in intraocular pressure (IOP) and pupil diameter (PD) after instillations of 0.033, 0.0033, 0.001, 0.00033, and 0.0001% travoprost in multiple single-dose studies.

[2] = test system: glaucomatous beagles; assay: IOP changes in glaucomatous beagles after travoprost instillations; format: in vivo
Source text: as §1

[3] = test system: lasered hypertensive cynomolgus monkeys; settings: cited from earlier work
[4] = test system: subjects with primary open-angle glaucoma or ocular hypertension; assay: IOP in subjects with primary open-angle glaucoma or ocular hypertension; format: in vivo, human; settings: patients
Source text: Patient population was controlled ocular hypertension or primary open-angle glaucoma; open, normal anterior chamber angles on gonioscopy. Primary outcomes were as follows. Diurnal IOP (8 AM, 10 AM, 4 PM) at Baseline. Day 14. Day 42. Day 85, Month 4 and Month 6. Intraocular pressure at 8 AM at Day 1. Day 3. Day 7 and Day 28. Safety evaluations, including adverse event reporting, ocular comfort, global tolerance, BCVA, endothelial cell counts, and pachymetry.

## CC(C)OC(=O)CCC/C=C\C[C@@H]1[C@@H](/C=C/[C@@H](O)COc2cccc(C(F)(F)F)c2)[C@H](O)C[C@@H]1O [travoprost]
[1]; 0.0001% concentration
  PD changes: still significant
[1]; all dosage strengths
  pupil constriction maintained for 24 hours: no dosage strength maintained pupil constriction for 24 hours
[1]; concentrations of 0.00033, 0.001, and 0.0033%
  effect on pupil diameter (PD): significantly lowered
[2]; 0.0001% concentration
  effect on IOP: limited IOP changes
[2]; concentrations of 0.00033, 0.001, and 0.0033%, single-dose instillation
  effect on IOP: significantly lowered
[2]; dog, in vivo
  dosage strength that maintained IOP reduction for 24 hours: ≥ 0.001%
[3]; continued twice a day dosing at 0.1 μg, after doses 4 and 5
  IOP lowering: significant lowering of IOP
[3]; single dose of 0.1 μg
  IOP lowering: did not significantly lower IOP
[3]; single dose of 0.3 μg
  IOP reduction: 19-26%
[4]
  onset of decrease in mean IOP following administration: as early as two days
